Reference: ChEMBL document CHEMBL5360547 (Eur J Med Chem, 2023)
The source made the active and inactive calls. The rule behind the calls is not given here.

Columns and labels:
[1] = tested on: SH-SY5Y; test: Neuroprotective activity against oxygen glucose deprivation induced ischemic stroke model in human SH-SY5Y cells assessed as cell viability at 20 uM incubated for 24 hrs by CCK-8 assay; format: functional; conditions: read-out: Activity
[2] = tested on: SH-SY5Y; test: Neuroprotective activity against oxygen glucose deprivation induced ischemic stroke model in human SH-SY5Y cells assessed as cell viability at 2 uM incubated for 24 hrs by CCK-8 assay; format: functional; conditions: read-out: Activity
[3] = tested on: Mus musculus; test: Neuroprotective activity against middle cerebral artery occlusion-induced brain infarction C57BL/6 mouse model assessed as decrease in neurological deficit score at 10 mg/kg, ip and measured after 24 hrs by animal behavioral study relative to control; format: functional
[4] = tested on: Cortical neurone; test: Cytotoxicity against primary C57BL/6J E14-17 mouse Cortical neuron assessed as decrease in cell viability upto 50 uM incubated for 24 hrs by CCK-8 assay; format: toxicity, cell-based
[5] = Toxicity in middle cerebral artery occlusion-induced brain infarction C57BL/6 mouse model assessed as survival rate at 10 mg/kg, ip and measured after 24 hrs; format: organism-based; conditions: in vivo
[6] = in vivo; conditions: C57BL/6, mouse, ip, 20 mg/kg
[7] = tested on: Cortical neurone; test: Neuroprotective activity against oxygen glucose deprivation induced ischemic stroke model in primary C57BL/6J E14-17 mouse Cortical neurons assessed as increase in cell viability at 0.5 to 20 uM incubated for 24 hrs by CCK-8 assay; format: functional, cell-based; conditions: dose 0.5-20 µM
[8] = tested on: Mus musculus; test: Neuroprotective activity against middle cerebral artery occlusion-induced brain infarction C57BL/6 mouse model assessed as reduction in cerebral infarct volume at 20 mg/kg, ip and measured after 24 hrs by TTC staining based assay; format: functional, organism-based
[9] = tested on: Cortical neurone; test: Cytotoxicity against primary C57BL/6J E14-17 mouse Cortical neuron assessed as decrease in cell viability at 0.1 to 20 uM incubated for 24 hrs by CCK-8 assay; format: toxicity, cell-based; conditions: dose 0.1-20 µM
[10] = tested on: Cortical neurone; test: Neuroprotective activity against oxygen glucose deprivation induced ischemic stroke model in primary C57BL/6J E14-17 mouse Cortical neurons assessed as increase in cell viability at 0.1 to 20 uM incubated for 24 hrs by CCK-8 assay; format: functional, cell-based; conditions: dose 0.1-20 µM
[11] = tested on: Cortical neurone; test: Neuroprotective activity against oxygen glucose deprivation induced ischemic stroke model in primary C57BL/6J E14-17 mouse Cortical neurons assessed as increase in cell viability at 5 uM incubated for 24 hrs by CCK-8 assay (Rvb= 57.43 +/- 2.54 %); format: functional
[12] = tested on: Cortical neurone; test: Neuroprotective activity against oxygen glucose deprivation induced ischemic stroke model in primary C57BL/6J E14-17 mouse Cortical neurons assessed as increase in cell viability at 1 uM incubated for 24 hrs by CCK-8 assay (Rvb= 57.43 +/- 2.54 %); format: functional; conditions: 24 h, 1 µM
[13] = tested on: Cortical neurone; test: Cytotoxicity against primary C57BL/6J E14-17 mouse Cortical neuron assessed as decrease in cell viability at 10 to 20 uM incubated for 24 hrs by CCK-8 assay; format: toxicity, cell-based; conditions: dose 10-20 µM
[14] = tested on: Cortical neurone; test: Cytotoxicity against primary C57BL/6J E14-17 mouse Cortical neuron assessed as decrease in cell viability at 0.1 to 5 uM incubated for 24 hrs by CCK-8 assay; format: toxicity, cell-based; conditions: dose 0.1-5 µM
[15] = tested on: Cortical neurone; test: Cytotoxicity against primary C57BL/6J E14-17 mouse Cortical neuron assessed as decrease in cell viability at 1 uM incubated for 24 hrs by CCK-8 assay relative to control; format: toxicity, cell-based
[16] = tested on: Cortical neurone; test: Cytotoxicity against primary C57BL/6J E14-17 mouse Cortical neuron assessed as decrease in cell viability at 10 uM incubated for 24 hrs by CCK-8 assay relative to control; format: toxicity, cell-based
[17] = tested on: Cortical neurone; test: Neuroprotective activity against oxygen glucose deprivation induced ischemic stroke model in primary C57BL/6J E14-17 mouse Cortical neurons assessed as increase in cell viability at 10 uM incubated for 24 hrs by CCK-8 assay (Rvb= 57.43 +/- 2.54 %); format: functional; conditions: 24 h, 10 µM

## O=C(/C=C/c1ccc(O)c2c1[C@H](C(=O)O[C@H](Cc1ccc(O)c(O)c1)C(=O)O)[C@@H](c1ccc(O)c(O)c1)O2)O[C@H](Cc1ccc(O)c(O)c1)C(=O)O
[1]
  viability at 20 µM: 78.1%
[2]
  viability at 2 µM: 73.4%

## CCCCCCCCN(C)[C@H]1CC[C@@H](c2ccc(Cl)c(Cl)c2)c2ccccc21 [listing 1 of 2 here]
[3]
  Activity: 1.5
[4]
  Activity: Non-Toxic
[5]
  survival at 24 h: 100%
[6]
  mortality at 24 h: 35.7%

## CCCCCCCCN(C)[C@H]1CC[C@@H](c2ccc(Cl)c(Cl)c2)c2ccccc21 [listing 2 of 2 here]
[7]
  Activity: Active
[8]
  Activity: Active

## NCCc1c[nH]c2ccc(O)cc12 [SEROTONIN]
[9]
  Activity: Non-Toxic
[10]
  Activity: inactive

## CN[C@H]1CC[C@@H](c2ccc(Cl)c(Cl)c2)c2ccccc21 [SERTRALINE]
[11]
  Activity: 65.9%
[12]
  Activity: 67.21%
[13]
  Activity: Toxic
[14]
  Activity: Non-Toxic
[1]
  viability at 20 µM: 30.5%
[2]
  viability at 2 µM: 81.9%
[15]
  Activity: 99.08%
[16]
  Activity: 94.25%
[17]
  Activity: 58.85%
[4]
  Activity: Non-Toxic
